Tests used:
Format in all cases: functional
HeLa [1] = assay: Antitumor activity against human HeLa cells xenografted in nude mouse assessed as tumor weight at 10 mg/kg, iv administered every other day up to 20 days (reference value: 1.014 +/- 0.116g)
HT-29 = assay: Antiproliferative activity against human HT-29 cells after 48 hrs by MTT assay; details: HT-29, 48 h
HeLa [2] = assay: Induction of apoptosis in human HeLa cells assessed as early apoptotic cells at 0.05 uM after 24 hrs by Annexin V-FITC/propidium iodide staining-based flow cytometric analysis (reference value: 3.65%)
HepG2 = assay: Antiproliferative activity against human HepG2 cells after 48 hrs by MTT assay; details: HepG2, 48 h
HeLa [3] = assay: Induction of apoptosis in human HeLa cells assessed as viable cells at 0.05 uM after 24 hrs by Annexin V-FITC/propidium iodide staining-based flow cytometric analysis (reference value: 92.8%); details: read-out: Activity
A549 = assay: Antiproliferative activity against human A549 cells after 48 hrs by MTT assay; details: A549, 48 h
A2780 = assay: Antiproliferative activity against human A2780 cells after 48 hrs by MTT assay; details: A2780, 48 h
HeLa [4] = assay: Antiproliferative activity against human HeLa cells after 48 hrs by MTT assay
HeLa [5] = assay: Induction of apoptosis in human HeLa cells assessed as late apoptotic cells at 0.05 uM after 24 hrs by Annexin V-FITC/propidium iodide staining-based flow cytometric analysis (reference value: 3.51%)
HeLa [6] = assay: Antitumor activity against human HeLa cells xenografted in nude mouse assessed as tumor growth inhibition at 10 mg/kg, iv administered every other day up to 20 days relative to control; details: 480 h, read-out: TGI
HeLa [7] = assay: Induction of apoptosis in human HeLa cells assessed as necrotic cells at 0.05 uM after 24 hrs by Annexin V-FITC/propidium iodide staining-based flow cytometric analysis (reference value: 0.05%)
MDA-MB-231 = assay: Antiproliferative activity against human MDA-MB-231 cells after 48 hrs by MTT assay; details: MDA-MB-231, 48 h

Question: Which results are given for `COc1ccc(/C=C\c2cc(OC)c(OC)c(OC)c2)cc1OP(=O)([O-])[O-].[Na+].[Na+]` [FOSBRETABULIN DISODIUM]?
Answer: Activity (HeLa [1]): 0.187 g; GI50 (HT-29): 0.062 µM; Activity (HeLa [2]): 18.9%; GI50 (HepG2): 0.19 µM; viability at 0.05 µM (HeLa [3]): 75.4%; GI50 (A549): 0.16 µM; GI50 (A2780): 0.32 µM; GI50 (HeLa [4]): 0.019 µM; Activity (HeLa [5]): 5.08%; inhibition in vivo at 10 mg/kg (HeLa [6]): 79.4%; Activity (HeLa [7]): 0.6%; GI50 (MDA-MB-231): 0.065 µM

Question: Which results are given for `CCOC(=O)N1N=C(c2cccc(O)c2)CC1c1cc(OC)c(OC)c(OC)c1` (stereo unspecified)?
Answer: GI50 (HT-29): 11.6 µM; GI50 (HepG2): 1.79 µM; GI50 (A549): 5.12 µM; GI50 (A2780): 9.75 µM; GI50 (HeLa [4]): 3.28 µM; GI50 (MDA-MB-231): 4.71 µM

Question: `COC(=O)N1N=C(c2ccccc2)CC1c1ccc(OC)cc1` (stereo unspecified) was tested. Which GI50 (HT-29) did it give?
Answer: > 10 µM

Question: What about the GI50 (HepG2) of the same compound?
Answer: 12 µM

Question: And the GI50 (A549)?
Answer: 15.3 µM

Question: What about the GI50 (A2780) of the same compound?
Answer: > 10 µM

Question: What about the GI50 (HeLa [4]) of the same compound?
Answer: 12.7 µM

Question: What about the GI50 (MDA-MB-231) of the same compound?
Answer: > 10 µM

Question: What does the source list for `COc1ccc(C2=NN(C(=O)OCc3ccccc3)C(c3cc(OC)c(OC)c(OC)c3)C2)cc1` (stereo unspecified)?
Answer: GI50 (HT-29): > 10 µM; GI50 (HepG2): > 10 µM; GI50 (A549): > 10 µM; GI50 (A2780): > 10 µM; GI50 (HeLa [4]): > 10 µM; GI50 (MDA-MB-231): > 10 µM

Question: Which GI50 (HT-29) does the source give for `CCCOC(=O)N1N=C(c2ccc(OC)cc2)CC1c1cc(OC)c(OC)c(OC)c1` (stereo unspecified) here?
Answer: 12.7 µM

Question: What about the GI50 (HepG2) of the same compound?
Answer: > 10 µM

Question: And the GI50 (A549)?
Answer: > 10 µM

Question: What about the GI50 (A2780) of the same compound?
Answer: 11.7 µM

Question: What about the GI50 (HeLa [4]) of the same compound?
Answer: > 10 µM

Question: What about the GI50 (MDA-MB-231) of the same compound?
Answer: 20.4 µM

Question: How did the GI50 (HT-29) turn out when `COc1cc(C2CC(c3cccc(O)c3)=NN2C(=O)OCc2ccccc2)cc(OC)c1OC` (stereo unspecified) was run?
Answer: > 10 µM

Question: What about the GI50 (HepG2) of the same compound?
Answer: > 10 µM

Question: And the GI50 (A549)?
Answer: > 10 µM

Question: And the GI50 (A2780)?
Answer: > 10 µM

Question: What about the GI50 (HeLa [4]) of the same compound?
Answer: > 10 µM

Question: What about the GI50 (MDA-MB-231) of the same compound?
Answer: > 10 µM

Question: What does the source list for `COC(=O)N1N=C(c2cccc(O)c2)CC1c1cc(OC)c(OC)c(OC)c1` (stereo unspecified)?
Answer: GI50 (HT-29): 1.35 µM; GI50 (HepG2): 0.65 µM; GI50 (A549): 3.17 µM; GI50 (A2780): 0.81 µM; GI50 (HeLa [4]): 1.97 µM; GI50 (MDA-MB-231): 0.74 µM

Question: Which results are given for `COC(=O)N1N=C(c2cc(OC)c(OC)c(OC)c2)CC1c1cc(OC)c(OC)c(OC)c1` (stereo unspecified)?
Answer: GI50 (HT-29): 7.85 µM; GI50 (HepG2): 9.72 µM; GI50 (A549): 12.6 µM; GI50 (A2780): 14 µM; GI50 (HeLa [4]): 5.68 µM; GI50 (MDA-MB-231): 11.1 µM

Question: `CCOC(=O)N1N=C(c2cccc(OC)c2)CC1c1cc(OC)c(OC)c(OC)c1` (stereo unspecified) was tested. Which GI50 (HT-29) did it give?
Answer: 7.86 µM

Question: What about the GI50 (HepG2) of the same compound?
Answer: 5.82 µM

Question: And the GI50 (A549)?
Answer: 5.92 µM

Question: And the GI50 (A2780)?
Answer: 7.3 µM

Question: And the GI50 (HeLa [4])?
Answer: 4.11 µM

Question: What about the GI50 (MDA-MB-231) of the same compound?
Answer: 9.1 µM

Question: With `COC(=O)N1N=C(c2ccc(O)cc2)CC1c1cc(OC)c(OC)c(OC)c1` (stereo unspecified) as the compound, how does the GI50 (HT-29) read?
Answer: 6.77 µM

Question: And the GI50 (HepG2)?
Answer: 7.82 µM

Question: And the GI50 (A549)?
Answer: 8.57 µM

Question: And the GI50 (A2780)?
Answer: 2.52 µM

Question: What about the GI50 (HeLa [4]) of the same compound?
Answer: 1.14 µM

Question: What about the GI50 (MDA-MB-231) of the same compound?
Answer: 7.15 µM

Question: How did the GI50 (HT-29) turn out when `COC(=O)N1N=C(c2ccc(OC)cc2)CC1c1cc(OC)c(OC)c(OC)c1` (stereo unspecified) was run?
Answer: 2.55 µM

Question: And the GI50 (HepG2)?
Answer: 1.71 µM

Question: And the GI50 (A549)?
Answer: 3.4 µM

Question: What about the GI50 (A2780) of the same compound?
Answer: 5 µM

Question: And the GI50 (HeLa [4])?
Answer: 2.59 µM

Question: And the GI50 (MDA-MB-231)?
Answer: 1.99 µM

Question: With `CCOC(=O)N1N=C(c2ccccc2)CC1c1cc(OC)c(OC)c(OC)c1` (stereo unspecified) as the compound, how does the GI50 (HT-29) read?
Answer: 8.92 µM

Question: What about the GI50 (HepG2) of the same compound?
Answer: 5.95 µM

Question: What about the GI50 (A549) of the same compound?
Answer: 6.68 µM

Question: What about the GI50 (A2780) of the same compound?
Answer: 6.72 µM

Question: And the GI50 (HeLa [4])?
Answer: 8.23 µM

Question: And the GI50 (MDA-MB-231)?
Answer: 5.61 µM

Question: Which GI50 (HT-29) does the source give for `COC(=O)N1N=C(c2cccc(OC)c2)CC1c1cc(OC)c(OC)c(OC)c1` (stereo unspecified) here?
Answer: 1.3 µM

Question: What about the GI50 (HepG2) of the same compound?
Answer: 1.87 µM

Question: And the GI50 (A549)?
Answer: 2.59 µM

Question: What about the GI50 (A2780) of the same compound?
Answer: 2.78 µM

Question: And the GI50 (HeLa [4])?
Answer: 1.53 µM

Question: What about the GI50 (MDA-MB-231) of the same compound?
Answer: 0.35 µM

Question: Which results are given for `COC(=O)N1N=C(c2ccc(OC)c(OC)c2)CC1c1cc(OC)c(OC)c(OC)c1` (stereo unspecified)?
Answer: GI50 (HT-29): 9.2 µM; GI50 (HepG2): 4.21 µM; GI50 (A549): 3.93 µM; GI50 (A2780): 11.4 µM; GI50 (HeLa [4]): 3.39 µM; GI50 (MDA-MB-231): 9.9 µM

Question: How did the GI50 (HT-29) turn out when `CCCOC(=O)N1N=C(c2cccc(OC)c2)CC1c1cc(OC)c(OC)c(OC)c1` (stereo unspecified) was run?
Answer: > 10 µM

Question: And the GI50 (HepG2)?
Answer: > 10 µM

Question: What about the GI50 (A549) of the same compound?
Answer: > 10 µM

Question: What about the GI50 (A2780) of the same compound?
Answer: > 10 µM

Question: What about the GI50 (HeLa [4]) of the same compound?
Answer: > 10 µM

Question: And the GI50 (MDA-MB-231)?
Answer: 12.5 µM
